Entries after “also recorded” stand apart in the source; their conditions may differ. Where a name gives a salt, the structure may show the parent alone. Read-outs that look alike come from different tables or passages of the source.
Tests used:
humans = settings: known effects in humans; cited from earlier work
48 hpf zebrafish embryos = settings: for Cardiotoxic effect in zebrafish: blind screened between 1 and 200 µM, predominant effect
From the text: The image analysis program for the Cardiotoxicity assay was based on the processing of the videos to obtain a periodic signal of the cardiac motion automatically and independent to the embryo position.
The detection of the heart beat frequency was based on the frequency spectrum analysis of the Euclidean Distance (ED) signal (built as the ED between the frames of the video referred to a reference frame calculated with the mean values of intensity for homogeneous zones). Obtaining the periodogram using the Discrete Fourier Transform (DFT), and modifying it to avoid undesired effects, the heart beat frequency was given by its first significant frequency (Figure 3 A).
For embryos with arrhythmia (A), the sinusoidal course of the ED signal was disrupted due to the irregular beating of the heart, i.e. the different beating frequency of each chamber. The classification of the arrhythmia cases was therefore based on the number of significant frequencies detected in the DFT of the ED signal (Figure 3 B).
Embryos at 48 hpf were automatically dispensed in a 96 well plate discarding exterior columns and rows and volume was leveled to 50µl with E3. Compounds were prepared 200 times concentrated in DMSO. A 1∶100 dilution was automatically made from the stock and 50 µl were added to each embryo to reach the final concentration. […] Embryos that moved during video recording were discarded. […] One video per embryo from a minimum of 10 embryos in each treated group were necessary for statistical analysis.

zebrafish embryos = assay: Automated angiogenesis assay (ISV formation), Flk1:copGFP embryos treated at 22-26 hpf, read at 48 hpf; assay type: in vivo; settings: for IC50: manually quantified; for Angiog. inhibition: presence or absence of an anti-angiogenic effect, 0.01-100 µM; for Anti-angiogenic phenotype (ISVs / DLAV): treated at 24 hpf, checked at 48 hpf
From the text: In the angiogenesis assay, the fluorescent images taken were processed using AxioVision 4.6.3 and a macro was developed to quantify an indirect measure of the area of the ISVs. […] However, we usually include a manual counting to offer a more detailed measurement of effect.
In the automatic analysis of angiogenesis, it is first necessary to perform a sequence of automated filtering functions on the image to extract information, define the region of interest (ROI), that in this case is the part of the tail containing the ISVs, and allow the measurement of the embryo length. Recovering a previous image, new filtering functions are applied to the ROI. A gradient image containing the ISVs, the DLAV (Dorsal Longitudinal Anastomotic Vessel), the PCV and the DA is created. Next, fluorescent areas that should not be quantified are discarded. Finally, only the areas comprised between the ISVs, the DLAV and the PCV or the DA are measured (Figure 4). In that way, when the vessels are incomplete or the DLAV is not present, an enclosed area is not present and therefore not measured.
The means obtained from the treated embryos were compared with the control mean. When statistically significant differences were detected a deeper analysis was done manually. In this case the parameters quantified were:
• The total number of ISVs present in the trunk of the embryos (from where the largest bulge of the yolk ends to the end of the tail). • Number of complete ISVs (reached the dorsal part of the embryo and formed the DLAV).
A curve of six concentrations (0.01, 0.1, 1, 10, 30 and 100 µM) was performed for all of them. […] IC50 was calculated when a clear dose-dependent anti-angiogenesis effect was detected. Otherwise, the minimum dose at which the inhibition of angiogenesis was observed is shown (Table 4).
At this time, chorions were removed with protease from Streptomyces griseus (Sigma-Aldrich) (1.5 mg/ml for 6 minutes) and the embryos were sorted and dispensed 1 per well in a 96 well assay plate. Each experimental condition was tested in a row with ten embryos. Embryos were dispensed in an average final volume of 90 µl of E3 media. 90 µl of the test items (DMSO and positive control KRN633 included) previously diluted 100 times were dispensed into each well of the assay plate containing the embryos to get the final volume of 180 µl and the desired final concentration.
The microscope scanned the wells by columns and a bright field image and a fluorescent image (2.5×magnification) were acquired per well. Then, the image analysis was performed and the result file generated.
Statistical analysis and graphical representation of the data were performed using SSPS (Statistical Package for the Social Sciences) software and Prism (Graph Pad Software) for IC50 calculations (non linear regression, sigmoidal dose-response with variable slope). […] In the angiogenesis assay, for comparisons between two groups, two-tailed t-test was used assuming unequal variances. For comparisons between more than two groups one-way analysis of variance followed by Dunnett’s post-test was applied to compare each data point with vehicle control.

[1] = Danio rerio, read-out: IC50 C.V. (complete number of vessels)
[2] = Danio rerio, read-out: IC50 T.V. (total number of vessels)
[3] = read-out: IC50 C.V. (complete number of vessels)
[4] = read-out: IC50 T.V. (total number of vessels)

## CCS(=O)(=O)N(C)[C@H]1c2cc(C#N)ccc2OC(C)(C)[C@@H]1O (racemic) [Chromanol 293b]
humans
  Cardiac effect in humans: QT-prolong.
48 hpf zebrafish embryos
  Cardiotoxic effect in zebrafish: No effect

## COc1cc2c(cc1O)CC[C@@H]1[C@@H]2CC[C@]2(C)[C@@H](O)CC[C@@H]12 [2-Methoxyestradiol]
Zebrafish embryos; [1]
  IC50: 10.2 µM
Zebrafish embryos; [2]
  IC50: 30.6 µM
Zebrafish embryos
  Angiog. inhibition: Yes
  Anti-angiogenic phenotype (ISVs / DLAV): the formation of ISVs was perturbed with defective or total absence of sprouting

## Cc1cn[nH]c1.Cl [4-Methylpyrazole hydrochloride]
Zebrafish embryos
  Angiog. inhibition: No

## COc1cc2ncnc(Nc3cccc(Cl)c3)c2cc1OC [AG1478]
Zebrafish embryos; [3]
  IC50: 13 µM
Zebrafish embryos; [4]
  IC50: 22.8 µM
Zebrafish embryos
  Angiog. inhibition: Yes
  Anti-angiogenic phenotype (ISVs / DLAV): the formation of ISVs was perturbed with defective or total absence of sprouting; also recorded: lower number of incomplete ISVs

## CC(N)=O [Acetamide]
Zebrafish embryos
  Angiog. inhibition: No

## CCCCc1oc2ccccc2c1C(=O)c1cc(I)c(OCCN(CC)CC)c(I)c1 [Amiodarone hydrochloride]
Zebrafish embryos
  Angiog. inhibition: No

## CCCCc1oc2ccccc2c1C(=O)c1cc(I)c(OCCN(CC)CC)c(I)c1 [Amiodarone]
humans
  Cardiac effect in humans: QT-prolong.

## COc1ccc(CCN2CCC(Nc3nc4ccccc4n3Cc3ccc(F)cc3)CC2)cc1 [Astemizole]
humans
  Cardiac effect in humans: QT-prolong.

## CC(C)C[C@H](NC(=O)[C@@H](O)[C@H](N)Cc1ccccc1)C(=O)O [Bestatin]
Zebrafish embryos
  Angiog. inhibition: No

## COc1cc(N)c(Cl)cc1C(=O)NC1CCN(CCCOc2ccc(F)cc2)CC1OC (stereo not drawn) [Cisapride]
humans
  Cardiac effect in humans: QT-prolong.

## C[C@H]1O[C@@H](O[C@H]2[C@@H](O)C[C@H](O[C@H]3[C@@H](O)C[C@H](O[C@H]4CC[C@@]5(C)[C@H](CC[C@@H]6[C@@H]5CC[C@]5(C)[C@@H](C7=CC(=O)OC7)CC[C@]65O)C4)O[C@@H]3C)O[C@@H]2C)C[C@H](O)[C@@H]1O [Digitoxin]
48 hpf zebrafish embryos; 48 hpf zebrafish embryos, 5 µM
  Predominant observed effect: N
48 hpf zebrafish embryos
  Cardiotoxic effect in zebrafish: Cardiac arrest

## COc1cccc2c1C(=O)c1c(O)c3c(c(O)c1C2=O)C[C@@](O)(C(=O)CO)C[C@@H]3O[C@H]1C[C@H](N)[C@H](O)[C@H](C)O1 [Doxorrubicin]
humans
  Cardiac effect in humans: No effect

## CC(C)C[C@H](NC(=O)[C@H]1O[C@@H]1C(=O)O)C(=O)NCCCCN=C(N)N [E64]
Zebrafish embryos
  Angiog. inhibition: No

## CNCCC(Oc1ccc(C(F)(F)F)cc1)c1ccccc1 (stereo not drawn) [Fluoxetine]
humans
  Cardiac effect in humans: Arrhythmia

## O=C(O)P(=O)(O)O [Foscarnet]
humans
  Cardiac effect in humans: Bradycardia
48 hpf zebrafish embryos
  Cardiotoxic effect in zebrafish: Bradycardia

## CO[C@@H]1[C@H](OC(=O)/C=C/C=C/C=C/C=C/C(=O)O)CC[C@]2(CO2)[C@H]1[C@@]1(C)O[C@@H]1CC=C(C)C [Fumagillin]
Zebrafish embryos
  Angiog. inhibition: not detected and No

## COC(=O)c1ccc(O)c(NC(=O)COc2ccc(C34CC5CC(CC(C5)C3)C4)cc2)c1 [HIF-1 Inhibitor]
Zebrafish embryos
  Angiog. inhibition: No
Zebrafish embryos; listed as Hif-1 inhibitor
  Angiog. inhibition: not detected

## O=C1Nc2ccccc2/C1=C1/Nc2ccccc2/C1=N\O [Indirubin-3̀-oxime]
Zebrafish embryos; [3]
  IC50: 4.2 µM
Zebrafish embryos; [4]
  IC50: 18.3 µM
Zebrafish embryos
  Angiog. inhibition: Yes
  Anti-angiogenic phenotype (ISVs / DLAV): the formation of ISVs was perturbed with defective or total absence of sprouting

## CCCNC(=O)Nc1ccc(Oc2ncnc3cc(OC)c(OC)cc23)cc1Cl [KRN633]
Zebrafish embryos; [1]
  IC50: 0.026 µM
Zebrafish embryos; [2]
  IC50: 0.035 µM
Zebrafish embryos
  Angiog. inhibition: Yes
  Anti-angiogenic phenotype (ISVs / DLAV): the formation of ISVs was perturbed with defective or total absence of sprouting

## O=C(c1ccc(F)cc1)C1CCN(CCn2c(=O)[nH]c3ccccc3c2=O)CC1 [Ketanserin]
humans
  Cardiac effect in humans: Bradycardia

## CS(=O)(=O)CCNCc1ccc(-c2ccc3ncnc(Nc4ccc(OCc5cccc(F)c5)c(Cl)c4)c3c2)o1 [Lapatinib]
humans
  Cardiac effect in humans: No effect

## CCN(CC)CC(=O)Nc1c(C)cccc1C [Lidocaine]
humans
  Cardiac effect in humans: Bradycardia

## CC(=O)N[C@@H](CS)C(=O)O [N-Acetyl-L-cysteine]
Zebrafish embryos
  Angiog. inhibition: No

## CN1CCC[C@H]1c1cccnc1 [Nicotine]
humans
  Cardiac effect in humans: Bradycardia
48 hpf zebrafish embryos
  Cardiotoxic effect in zebrafish: Bradycardia

## CCOC(=O)C1=C(C)NC(C)=C(C(=O)OC)C1c1cccc([N+](=O)[O-])c1 (stereo not drawn) [Nitrendipine]
humans
  Cardiac effect in humans: Cardiac arrest

## Nc1nc(OCc2ccccc2)c2nc[nH]c2n1 [O6-benzylguanine]
Zebrafish embryos
  Angiog. inhibition: No

## COc1cc(OC)cc(-c2cc3cnc(N)nc3nc2NC(=O)NC(C)(C)C)c1 [PD166866]
Zebrafish embryos; [3]
  IC50: 16 µM
Zebrafish embryos; [4]
  IC50: 43.9 µM
Zebrafish embryos
  Angiog. inhibition: Yes
  Anti-angiogenic phenotype (ISVs / DLAV): the formation of ISVs was perturbed with defective or total absence of sprouting; also recorded: strong angiogenesis inhibition

## COc1cc2nccc(Oc3ccc(NC(=S)NC(=O)c4ccccc4C)cc3)c2cc1OC [PDGFR tyr kin inhibitor V]
Zebrafish embryos; [3]
  IC50: 0.14 µM
Zebrafish embryos; [4]
  IC50: 0.19 µM
Zebrafish embryos
  Angiog. inhibition: Yes
Zebrafish embryos; listed as PDGFR tyrosine kinase inhibitor
  Anti-angiogenic phenotype (ISVs / DLAV): the formation of ISVs was perturbed with defective or total absence of sprouting
Zebrafish embryos; listed as PDGFR tyrosine kinase inhibitor V
  Anti-angiogenic phenotype (ISVs / DLAV): strong angiogenesis inhibition

## CC[C@@H]1C(=O)OC[C@@H]1Cc1cncn1C [Pilocarpine]
humans
  Cardiac effect in humans: No effect

## O=c1[nH]c2ccccc2n1C1CCN(CCCC(c2ccc(F)cc2)c2ccc(F)cc2)CC1 [Pimozide]
humans
  Cardiac effect in humans: QT-prolong.

## Cc1nc2n(c(=O)c1CCN1CCC(c3noc4cc(F)ccc34)CC1)CCCC2 [Risperidone]
humans
  Cardiac effect in humans: QT-prolong.

## N#Cc1cc2c(OCC(O)CN3CCN(C(c4ccccc4)c4ccccc4)CC3)cccc2[nH]1 (stereo not drawn) [SDZ-201106]
humans
  Cardiac effect in humans: QT-prolong.
48 hpf zebrafish embryos
  Cardiotoxic effect in zebrafish: 2∶1 arrhythmia and type 2∶1 arrhythmias and Arrhythmia 2∶1

## O=C1NCCN1CCN1CCC(c2cn(-c3ccc(F)cc3)c3ccc(Cl)cc23)CC1 [Sertindol]
humans
  Cardiac effect in humans: QT-prolong.

## CC(C)(C)c1ccc(C(O)CCCN2CCC(C(O)(c3ccccc3)c3ccccc3)CC2)cc1 (stereo not drawn) [Terfenadine]
48 hpf zebrafish embryos; tested at 0.1, 1, 5, 10, 20 and 50 µM
  Concentration at which detected as potential QT-prolongation inducer: 5 µM

## CC(CC(c1ccccc1)c1ccccc1)NC(C)(C)C (stereo not drawn) [Terodiline]
humans
  Cardiac effect in humans: QT-prolong.
48 hpf zebrafish embryos
  Cardiotoxic effect in zebrafish: Arrhythmia 2∶1

## C[C@]12CC[C@H]3[C@@H](CCC4=CC(=O)CC[C@@]43C)[C@@H]1CC[C@@H]2O [Testosterone]
humans
  Cardiac effect in humans: Bradycardia
48 hpf zebrafish embryos
  Cardiotoxic effect in zebrafish: Bradycardia

## COc1ccc2cc(-c3nc(-c4ccc([S+](C)[O-])cc4)[nH]c3-c3ccncc3)ccc2c1 (stereo not drawn) [Tie2 Kinase inhibitor]
Zebrafish embryos
  Angiog. inhibition: No
Zebrafish embryos; listed as Tie-2 kinase inhibitor
  Angiog. inhibition: not detected

## CC(C)(C)NC[C@H](O)COc1nsnc1N1CCOCC1 [Timolol]
humans
  Cardiac effect in humans: Bradycardia

## N#C/C(=C\c1ccc(O)c(O)c1)C(=O)NCc1ccccc1 [Tyrphostin AG490]
Zebrafish embryos
  Angiog. inhibition: No

## COc1cc2c(Nc3ccc(Br)cc3F)ncnc2cc1OCC1CCN(C)CC1 [ZD6474 (Vandetanib), Vandetanib]
Zebrafish embryos; given when IC50 could not be calculated
  Efective concentration (minimum concentration that showed an effect): 100 µM
Zebrafish embryos
  Angiog. inhibition: Yes
  Anti-angiogenic phenotype (ISVs / DLAV): the formation of ISVs was perturbed with defective or total absence of sprouting

## O=C1Cc2cc(CCN3CCN(c4nsc5ccccc45)CC3)c(Cl)cc2N1 [Ziprasidone]
humans
  Cardiac effect in humans: QT-prolong.

## N.N.[Cl][Pt][Cl] [cis-Diammineplatinum(II) dichloride]
Zebrafish embryos
  Angiog. inhibition: No

Source: PMC3352927, “Development and Validation of an Automated High-Throughput System for Zebrafish In Vivo Screenings” (PLoS ONE, 2012)
